This passage reports EC50, EMAX and Emax results from patent US12351574B2, “Selective ligands for modulation of GIRK channels” (Northeastern University, priority 2018, dated 2025).

The test has as its target T1, GIRK1/2(IV-VT) (UniProt P48542+P48549, I97V/V99T).
T1 construct: expressed in transfected cells; host or cells: Xenopus laevis oocytes (cRNA injection)
T1 sequence (P48549 1-501): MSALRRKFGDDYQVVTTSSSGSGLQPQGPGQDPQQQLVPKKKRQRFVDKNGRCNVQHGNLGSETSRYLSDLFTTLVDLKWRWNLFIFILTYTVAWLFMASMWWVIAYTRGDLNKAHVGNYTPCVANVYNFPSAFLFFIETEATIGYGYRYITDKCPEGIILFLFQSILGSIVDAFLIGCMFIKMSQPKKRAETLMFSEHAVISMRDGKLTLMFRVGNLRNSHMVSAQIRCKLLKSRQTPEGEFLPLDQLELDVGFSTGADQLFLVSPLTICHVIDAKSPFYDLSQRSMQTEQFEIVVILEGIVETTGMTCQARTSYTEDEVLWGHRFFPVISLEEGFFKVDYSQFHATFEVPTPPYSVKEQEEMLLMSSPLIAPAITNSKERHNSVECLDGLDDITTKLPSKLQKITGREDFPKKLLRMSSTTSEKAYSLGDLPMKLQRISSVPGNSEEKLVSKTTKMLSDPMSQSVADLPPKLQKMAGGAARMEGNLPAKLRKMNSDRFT
T1 sequence (P48542 1-425 I97V/V99T): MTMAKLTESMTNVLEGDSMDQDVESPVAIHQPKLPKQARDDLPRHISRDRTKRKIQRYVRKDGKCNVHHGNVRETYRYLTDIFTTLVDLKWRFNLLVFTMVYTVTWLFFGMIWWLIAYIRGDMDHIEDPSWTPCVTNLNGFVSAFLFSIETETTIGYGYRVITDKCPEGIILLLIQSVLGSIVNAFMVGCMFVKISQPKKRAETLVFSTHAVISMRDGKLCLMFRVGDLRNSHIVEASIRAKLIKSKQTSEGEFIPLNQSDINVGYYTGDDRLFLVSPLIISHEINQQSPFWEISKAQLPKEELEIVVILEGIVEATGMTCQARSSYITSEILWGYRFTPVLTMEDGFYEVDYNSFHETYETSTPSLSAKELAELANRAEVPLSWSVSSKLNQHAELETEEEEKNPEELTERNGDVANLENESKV
The experiment in a line: TEVC in Xenopus oocytes, double mutant GIRK1/2(IV-VT). The format is cell-based, human GIRK1, mouse GIRK2. The following applies: GIRK1/2(IV-VT) double mutant. The source says:
Molecular biology: For Xenopus oocyte expression, human GIRK1 and human GIRK4 cDNAs were subcloned into pGEMHE. For mammalian expression, human GIRK1 and human GIRK4 cDNAs were subcloned into pcDNA3 and pcDNA3.1/V5-His B, respectively (Invitrogen). Mouse GIRK2 cDNA was subcloned in the dual-function vector, pXoom. Point mutations were introduced using a standard Pfu-based mutagenesis technique according to the QuikChange protocol (Agilent). Mutations were verified by sequencing.
Electrophysiology of oocytes: Whole-oocyte currents were measured by conventional two-electrode voltage clamp (TEVC) with a GeneClamp 500 amplifier (Axon Instruments). Agarose cushion microelectrodes were filled with 1.5% (w/v) agarose in 3 M KCl and were used with resistances between 0.1 and 1.5 megaohms. […] Barium-sensitive basal currents from both groups, 1) Vehicle, 2) single concentration at 10 μM and 3) multiple concentrations of ML297 or GAT compounds in the presence of HK solution, were assessed at −80 mV using TEVC. Barium-sensitive currents were normalized to average basal current in the vehicle solutions. The HK solution contained the following: 96 mM KCl, 1 mM NaCl, 1 mM MgCl2, 5 mM KOH/HEPES, pH 7.4. The barium solution consisted of HK+10 mM BaCl2. Five to ten oocytes from the same batch (same frog) were recorded for each group, and the experiments were repeated in at least four batches. Data acquisition and analysis were carried out using pClamp9 (Molecular Devices) and OriginPro (Microcal) software.
To test these computational predictions, the inventors mutated each or both of the two M1 key wild-type GIRK4 subunit residues to the corresponding GIRK2 residues (GIRK4-V92I, GIRK4-T94V, GIRK4-V92I/T94V or GIRK4-dm) and vice-versa the GIRK2 residues to the corresponding GIRK4 ones (GIRK2-I97V, GIRK2-V99T, GIRK2-I97V/V99T or GIRK2-dm) (FIG. 35). […]

Turning to `Cc1cc(NC(=O)Nc2ccc(Br)s2)n(-c2ccccc2)n1` [GAT1508, 1-(5-bromothiophen-2-yl)-3-(3-methyl-1-phenyl-1H-pyrazol-5-yl)urea], the EC50 turned out to be 940 ± 150 nM and the EMAX is 1.68±0.04. Besides, the Emax (read-out: EMAX, % of the control GIRK1/2) was 72%.
